# In patent US6432957B1, “Piperazine derivative” (Kowa Co., Ltd., priority 2001, dated 2002):
# Where a name gives a salt, the structure may show the parent alone.
# Test system: U937 cells adhered to HUVEC stimulated by TNFα
# Assay: Inhibitory effect on cell adhesion (U937 adhesion to TNFα-stimulated HUVEC)
# Type: cell-based
# Conditions: Homo sapiens, read-out: Inhibitory activity against cell adhesion, Percent inhibition (%); for inhibition at 1 µM: 1 μM test agent; for inhibition at 10 µM: 10 μM test agent
# Experimental: (Inhibitory Effect on Cell Adhesion)
# This test was conducted by reference to the method of Ross et al. (J. Biol. Chem., 267, 8537-8543 (1992)). More specifically, after human umbilical venous endothelial cells (HUVEC) were cultured on a 48-well plate to confluent growth, TNFα was added thereto. Upon elapsed time of 5 hours after the addition, U937, which is a human monocytic/histocytic cell fluorescence-labeled with PKH2 (product of Dainippon Pharmaceutical Co., Ltd.), was added in a proportion of 1×10^6 cells per well. After the plate was left at rest at room temperature for 1 hour, unadhered U937 was washed out and lysed in 1% Triton X-100 to measure a remaining fluorescence intensity (excitation wavelength: 480 nm; measuring wavelength: 530 nm). HUVEC and U937 were cultured in EGM-2 (product of Sanko Junyaku K.K.) and 10% FCS-containing RPMI1640, respectively. Each test agent was added to HUVEC upon the addition of TNFα and to U937 24 hours prior to the cell adhesion test. The inhibitory activity was calculated out according to the equation [100−(C−B)/(A−B)×100 (%)], wherein A is the number of U937 cells adhered to HUVEC stimulated by TNFα when no test agent was added, B is the number of U937 cells adhered to HUVEC not stimulated by TNFα when no test agent was added, and C is the number of U937 cells adhered to HUVEC stimulated by TNFα when the test agent was added. As control compounds, Test Compound 1 described in Japanese Patent Application Laid-Open No. 9-143075 and dilazep described in Japanese Patent Application Laid-Open No. 11-92382 were simultaneously evaluated.
Compound,inhibition at 1 µM [%],inhibition at 10 µM [%]
"COc1cc(C(=O)OCCCN2CCCN(CCCOC(=O)c3cc(OC)c(OC)c(OC)c3)CC2)cc(OC)c1OC [Dilazep, dilazep, reference compound]",12,25
"COc1cc(-c2cc(CN3C[C@@H](C)N(Cc4ccnc(-c5cc(OC)c(OC)c(OC)c5)c4)[C@@H](C)C3)ccn2)cc(OC)c1OC [Example 1, cis-N,N′-bis[[2-(3,4,5-trimethoxyphenyl)pyridin-4-yl]methyl]-2,6-dimethylpiperazine tetrahydrochloride]",76,78
"COc1cc(-c2cc(CN3C[C@H](C)N(Cc4ccnc(-c5cc(OC)c(OC)c(OC)c5)c4)C[C@H]3C)ccn2)cc(OC)c1OC [Example 2, trans-N,N′-bis[[2-(3,4,5-trimethoxyphenyl)-pyridin-4-yl]methyl]-2,5-dimethylpiperazine tetrahydrochloride]",42,64
"COc1cc(-c2cc(CN3CCN(Cc4ccnc(-c5cc(OC)c(OC)c(OC)c5)c4)C(CO)C3)ccn2)cc(OC)c1OC (centres unmarked) [Example 3, N,N′-bis[[2-(3,4,5-trimethoxyphenyl)pyridin-4-yl]methyl]-2-hydroxymethylpiperazine dimaleate]",34,90
"COc1cc(-c2cc(CN3CCN(Cc4ccnc(-c5cc(OC)c(OC)c(OC)c5)c4)C(=O)C3)ccn2)cc(OC)c1OC [Example 4, 2-oxo-N,N′-bis[[2-(3,4,5-trimethoxyphenyl)-pyridin-4-yl]methyl]piperazine 2.5 hydrochloride]",60,79
"COc1cc(-c2cc(CN3CCN(Cc4ccnc(-c5cc(OC)c(OC)c(OC)c5)c4)[C@@H](C)C3=O)ccn2)cc(OC)c1OC [Example 5, (3S)-3-methyl-2-oxo-N,N′-bis[[2-(3,4,5-trimethoxyphenyl)pyridin-4-yl]methyl]piperazine 2.5 hydrochloride]",51,85
"COc1cc(-c2cc(CN3CCN(Cc4ccnc(-c5cc(OC)c(OC)c(OC)c5)c4)[C@@H](C(C)C)C3=O)ccn2)cc(OC)c1OC [Example 6, (3S)-3-isopropyl-2-oxo-N,N′-bis[[2-(3,4,5-trimethoxyphenyl)pyridin-4-yl]methyl]piperazine sesqui-hydrochloride]",63,77
"COc1cc(-c2cc(CN3CCN(Cc4ccnc(-c5cc(OC)c(OC)c(OC)c5)c4)[C@H](C(C)C)C3=O)ccn2)cc(OC)c1OC [Example 7, (3R)-3-isopropyl-2-oxo-N,N′-bis[[2-(3,4,5-trimethoxyphenyl)pyridin-4-yl]methyl]piperazine tri-hydrochloride]",51,70
"COc1cc(-c2cc(CN3CCN(Cc4ccnc(-c5cc(OC)c(OC)c(OC)c5)c4)[C@@H](CC(C)C)C3=O)ccn2)cc(OC)c1OC [Example 8, (3S)-3-(2-methylpropyl)-2-oxo-N,N′-bis[[2-(3,4,5-trimethoxyphenyl)pyridin-4-yl]methyl]piperazine 2.5 hydrochloride]",63,79
"COc1cc(-c2cc(CN3CCN(Cc4ccnc(-c5cc(OC)c(OC)c(OC)c5)c4)[C@@H](Cc4ccccc4)C3=O)ccn2)cc(OC)c1OC [Example 9, (3S)-3-benzyl-2-oxo-N,N′-bis[[2-(3,4,5-trimethoxyphenyl)pyridin-4-yl]methyl]piperazine sesqui-hydrochloride]",38,86
